Where two headings read alike, the source gives them in different places.
What was measured:
MMP-1 = target: T1, MMP-1 (Homo sapiens, UniProt P03956); assay: MMP-1 inhibitory action (Type I collagen Activity Measurement kit, FITC-labeled collagen type I); type: biochemical
T1 sequence (P03956 100-469): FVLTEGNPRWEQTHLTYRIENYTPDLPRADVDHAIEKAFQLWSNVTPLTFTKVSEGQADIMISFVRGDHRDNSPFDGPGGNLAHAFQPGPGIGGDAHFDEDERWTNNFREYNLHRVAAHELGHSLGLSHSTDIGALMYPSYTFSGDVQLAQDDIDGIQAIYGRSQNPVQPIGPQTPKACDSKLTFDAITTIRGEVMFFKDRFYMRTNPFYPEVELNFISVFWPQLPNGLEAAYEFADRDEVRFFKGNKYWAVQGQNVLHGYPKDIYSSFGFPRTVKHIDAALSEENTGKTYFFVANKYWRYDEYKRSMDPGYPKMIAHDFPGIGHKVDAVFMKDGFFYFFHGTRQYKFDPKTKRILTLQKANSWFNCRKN
Procedure: For MMP-1 Assay, Type I collagen Activity Measurement kit (YAGAI YU-72013) modified to a 96-well plate format was used.
The principle of the kit is based on the property of collagen that becomes soluble in ethanol after being cleaved by MMP-1.
(§1) The enzyme and substrate were diluted with Tris-HCl buffer, and test compounds were diluted with dimethyl sulfoxide (DMSO).
The enzyme and test compounds were added into 96-well plate, and fluorescein isothiocianate (FITC)-labeled collagen type I was added as a substrate and the mixture was incubated at 37° C. for 3 hr.
The reaction was terminated by addition of Tris-HCl buffer containing ethanol. After centrifugation, the supernatant containing denatured substrate was transferred to another 96-well plate. The collagenase activity of MMP-1 was determined by measuring FITC fluorescence intensity (excitation wavelength 485 nm, emission wavelength 530 nm) of each well. The inhibitory activity of the compound in each well (%) was calculated based on the values of enzyme-free well and inhibitor-free well. The inhibitory activity of the compound was represented as IC50 (μM).

aggrecanase-1 = target: T2, aggrecanase-1 (Homo sapiens, UniProt O75173); assay: Aggrecanase-1 inhibitory action (Particle Assay, GAG release from aggrecan-containing polyacrylamide particles); type: biochemical
T2 sequence (O75173 213-837): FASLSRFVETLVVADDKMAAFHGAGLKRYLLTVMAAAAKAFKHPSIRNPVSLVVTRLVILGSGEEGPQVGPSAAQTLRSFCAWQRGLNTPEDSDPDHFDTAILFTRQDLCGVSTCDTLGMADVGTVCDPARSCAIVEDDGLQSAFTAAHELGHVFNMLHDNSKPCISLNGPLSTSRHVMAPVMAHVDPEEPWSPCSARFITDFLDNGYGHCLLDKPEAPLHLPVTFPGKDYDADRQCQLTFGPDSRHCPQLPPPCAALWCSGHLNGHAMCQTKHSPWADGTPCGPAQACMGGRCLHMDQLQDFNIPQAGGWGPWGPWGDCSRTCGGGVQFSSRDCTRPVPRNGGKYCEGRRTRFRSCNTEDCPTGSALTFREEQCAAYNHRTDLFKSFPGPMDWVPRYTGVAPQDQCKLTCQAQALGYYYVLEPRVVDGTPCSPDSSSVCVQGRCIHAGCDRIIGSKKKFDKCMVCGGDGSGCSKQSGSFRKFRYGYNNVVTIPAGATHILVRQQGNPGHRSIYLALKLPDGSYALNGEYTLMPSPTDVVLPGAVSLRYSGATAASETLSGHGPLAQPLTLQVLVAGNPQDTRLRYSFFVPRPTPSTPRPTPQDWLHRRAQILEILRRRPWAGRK
Procedure: Particle Assay was used for determination of aggrecanase activity.
as §1
Test compounds and the enzyme were added into 96-well plate, and polyacrylamide particles containing aggrecan were added as a substrate and the mixture was incubated at 37° C. for 15 hr.
After incubation, the supernatant was transferred to another plate, and mixed with 1,9-dimethylmethylene blue. The absorbence at 595 nm was measured to quantify the amount of glycosaminoglycan (GAG) released in the reaction supernatant. Whale chondroitin sulfate was used as the standard of GAG. The inhibitory activity of the compound in each well (%) was calculated based on the values of enzyme-free well and inhibitor-free well. The inhibitory activity of the compound was represented as […] (μM).

[1] = Experimental Example 2, read-out: IC50 MMP1
[2] = Experimental Example 1, read-out: IC50 AG1
[3] = MMP-1 inhibitory action, FITC-labeled collagen type I, 37° C. for 3 hr, read-out: IC50 MMP1 (Experimental Example 2)
[4] = aggrecanase-1 inhibitory action, read-out: IC50 AG1 (Experimental Example 1)

| IC50 (MMP-1; [1]) [µM] | IC50 (aggrecanase-1; [2]) [µM] | IC50 (MMP-1; [3]) [µM] | IC50 (aggrecanase-1; [4]) [µM] | SMILES |
| --- | --- | --- | --- | --- |
| ≥ 1 | < 1 |  |  | Cc1cnc(-c2ccc(S(=O)(=O)N[C@@]3(C(=O)O)C(C)[C@@H]3c3ccccc3)s2)o1 (stereo partly drawn) [Example 2-417] |
|  |  | ≥ 1 | < 1 | O=C(O)[C@]1(NS(=O)(=O)c2ccc(-c3ccc(Cl)cc3)cc2)C[C@@H]1c1ccccc1 [Example 1, (1S,2R)-1-(4′-Chlorobiphenyl-4-sulfonylamino)-2-phenylcyclopropanecarboxylic acid] |
|  |  | ≥ 1 | < 0.1 | COc1ccccc1C1CC1(NS(=O)(=O)c1ccc(-c2ccc(Cl)cc2)s1)C(=O)O (stereo not drawn) [Example 1-4] |
|  |  | ≥ 1 | < 1 | O=C(O)C1(NS(=O)(=O)c2ccc(-c3ccc(Cl)cc3)s2)CC1c1cccc(O)c1 (stereo not drawn) [Example 1-116] |
|  | ≥ 1 |  |  | COc1ccc(-c2ccc(S(=O)(=O)N[C@@]3(C(=O)O)C[C@]3(C)c3ccccc3)s2)cc1CO [Example 2-592] |
|  |  | < 1 | ≥ 1 | O=C(O)[C@]1(NS(=O)(=O)c2ccc(-c3cc4ccccc4o3)s2)C[C@@H]1c1ccccc1 [Example 2-122] |
|  |  | ≥ 10 | < 1 | Cc1cnc(-c2ccc(S(=O)(=O)N[C@@]3(C(=O)O)C[C@@H]3c3ccccc3)s2)s1 [Example 2-26] |
|  |  | ≥ 1 | < 1 | O=C(O)[C@]1(NS(=O)(=O)c2ccc(-c3cccc(Cl)c3)s2)C[C@@H]1c1ccccc1 [Example 1-110] |
| ≥ 10 | ≥ 1 |  |  | O=C1NCc2ccccc2C2CC12NS(=O)(=O)c1ccc(-c2ccc(Cl)cc2)s1 (stereo not drawn) [Example 2-415] |
| ≥ 10 | ≥ 1 |  |  | Cc1nc2cc(-c3ccc(S(=O)(=O)N[C@@]4(C(=O)O)C(C)[C@@H]4c4ccccc4)s3)ccc2s1 (stereo partly drawn) [Example 2-469] |
|  |  | ≥ 1 | < 1 | O=C(O)[C@]1(NS(=O)(=O)c2cnc(-c3ccc(Cl)cc3)s2)C[C@@H]1c1ccccc1 [Example 1-100] |
|  |  |  | ≥ 10 | O=C1O[C@H]([C@H]2C[C@@]2(NS(=O)(=O)c2ccc(-c3ccc(Cl)cc3)s2)C(=O)O)CN1Cc1ccccc1 [Example 2-138] |
|  | < 0.1 |  |  | CC1[C@](C)(c2ccccc2)[C@]1(NS(=O)(=O)c1ccc(-c2cc(C(C)(F)F)on2)s1)C(=O)O (stereo partly drawn) [Example 2-625] |
|  |  | ≥ 10 |  | O=C(O)C1(NS(=O)(=O)c2ccc(OCc3ccc(Cl)cc3Cl)cc2)CC1c1ccccc1 (stereo not drawn) [Example 1-65] |
|  |  | ≥ 10 | ≥ 10 | O=C(O)C1(NS(=O)(=O)N2CCc3nc(-c4ccccc4)ncc3C2)CC1c1ccccc1 (stereo not drawn) [Example 2-127] |
| ≥ 1 | < 1 |  |  | CC1[C@H](c2ccccc2)[C@]1(NS(=O)(=O)c1ccc(-c2ccc3[nH]c(=O)sc3c2)s1)C(=O)O (stereo partly drawn) [Example 2-468] |
|  |  | ≥ 10 | ≥ 1 | O=C1Nc2ccccc2C2CC12NS(=O)(=O)c1ccc(-c2ccc(Cl)cc2)s1 (stereo not drawn) [Example 2-218] |
|  |  | ≥ 10 | < 1 | O=C(COc1ccccc1C1CC1(NS(=O)(=O)c1ccc(-c2ccc(Cl)cc2)s1)C(=O)O)NCc1ccccc1 (stereo not drawn) [Example 1-145] |
|  |  | ≥ 1 | < 1 | NC(=O)Nc1cccc(C2CC2(NS(=O)(=O)c2ccc(-c3ccc(Cl)cc3)s2)C(=O)O)c1 (stereo not drawn) [Example 1-135] |
|  |  | ≥ 10 | < 1 | O=C(O)C1(NS(=O)(=O)c2ccc(-c3ccc(Br)cc3)cc2)CC1c1ccccc1 (stereo not drawn) [Example 1-31] |
|  |  | ≥ 1 | < 1 | COc1ccccc1C1CC1(NS(=O)(=O)c1ccc(-c2ccc(Cl)cc2)cc1)C(=O)O (stereo not drawn) [Example 1-13] |
|  |  | ≥ 1 | < 0.1 | NC(=O)COc1cccc(C2CC2(NS(=O)(=O)c2ccc(-c3ccc(Cl)cc3)cc2)C(=O)O)c1 (stereo not drawn) [Example 1-117] |

| IC50 (MMP-1; [1]) [µM] | IC50 (aggrecanase-1; [2]) [µM] | IC50 (MMP-1; [3]) [µM] | IC50 (aggrecanase-1; [4]) [µM] | SMILES |
| --- | --- | --- | --- | --- |
|  |  | ≥ 1 | < 1 | O=C(O)C1(NS(=O)(=O)c2ccc(-c3ccc(Cl)cc3)cc2)CC1c1cccc(NCc2ncc[nH]2)c1 (stereo not drawn) [Example 1-112] |
|  |  | ≥ 1 | < 1 | NC(=O)c1cccc(C2CC2(NS(=O)(=O)c2ccc(-c3ccc(Cl)cc3)s2)C(=O)O)c1 (stereo not drawn) [Example 1-137] |
| ≥ 10 | ≥ 1 |  |  | CC(=O)Nc1ccc(-c2ccc(S(=O)(=O)N[C@@]3(C(=O)O)C[C@]3(C)c3ccccc3)s2)cc1 [Example 2-402] |
|  |  | ≥ 1 | < 1 | O=C(O)C1(NS(=O)(=O)c2ccc(-c3ccc(Cl)cc3)cc2)CC1c1cccc(NCc2ccccc2)c1 (stereo not drawn) [Example 1-43] |
|  |  | ≥ 10 | < 0.1 | O=C(COc1ccccc1C1CC1(NS(=O)(=O)c1ccc(-c2ccc(Cl)cc2)s1)C(=O)O)N1CCOCC1 (stereo not drawn) [Example 1-146] |
|  | ≥ 1 |  |  | C[C@]1(c2ccccc2)C[C@@]1(NS(=O)(=O)c1ccc(-c2cccc(OCCO)c2)s1)C(=O)O [Example 2-575] |
|  |  | ≥ 10 | < 1 | O=C(O)C1(NS(=O)(=O)c2ccc(-c3ccc(Cl)cc3)s2)CC1c1ccccc1Br (stereo not drawn) [Example 2-167] |
|  |  | ≥ 1 | < 1 | CC(C)(C)OC(=O)N1CCC(Nc2cccc(C3CC3(NS(=O)(=O)c3ccc(-c4ccc(Cl)cc4)cc3)C(=O)O)c2)CC1 (stereo not drawn) [Example 1-42] |
|  |  | ≥ 10 | < 1 | CN1CCC(N(C)Cc2cccc(C3CC3(NS(=O)(=O)c3ccc(-c4ccc(Cl)cc4)s3)C(=O)O)c2)CC1 (stereo not drawn) [Example 1-104] |
|  |  | ≥ 10 | < 1 | O=C(O)C1(NS(=O)(=O)c2ccc(-c3ccc(Cl)cc3)cc2)CC1c1ccccc1Oc1ccccc1 (stereo not drawn) [Example 1-14] |
|  |  | ≥ 1 | < 1 | O=C(CO)Nc1cccc(C2CC2(NS(=O)(=O)c2ccc(-c3ccc(Cl)cc3)cc2)C(=O)O)c1 (stereo not drawn) [Example 1-105] |
|  |  | ≥ 10 | < 0.1 | O=C(O)[C@]1(NS(=O)(=O)c2ccc(-c3ccc(Cl)cc3Cl)s2)C[C@@H]1c1ccccc1 [Example 1-125] |
|  |  | ≥ 1 | < 0.1 | CNC(=O)COc1cccc(C2CC2(NS(=O)(=O)c2ccc(-c3ccc(Cl)cc3)cc2)C(=O)O)c1 (stereo not drawn) [Example 1-118] |
|  |  | < 1 | < 1 | O=C(O)[C@]1(NS(=O)(=O)c2ccc(-c3ccc(C(F)F)s3)s2)C[C@@H]1c1ccccc1 [Example 2-102] |
|  |  | ≥ 10 | < 1 | O=C(O)[C@@]1(NS(=O)(=O)c2ccc(-c3ccc(Cl)cc3)cc2)C[C@H]1c1ccccc1 [Example 1-7] |
|  |  | ≥ 1 | < 1 | O=C(O)C1(NS(=O)(=O)c2ccc(-c3ccc(Cl)cc3)cc2)CC1c1cccc(O)c1 (stereo not drawn) [Example 1-44] |
|  | < 0.1 |  |  | COc1cccc([C@@]2(C)C[C@@]2(NS(=O)(=O)c2ccc(-c3cc(C(F)(F)F)on3)s2)C(=O)O)c1 [Example 2-624] |
|  |  | ≥ 1 | < 1 | CN(C)c1cccc(C2CC2(NS(=O)(=O)c2ccc(-c3ccc(Cl)cc3)cc2)C(=O)O)c1 (stereo not drawn) [Example 1-21] |
|  |  | ≥ 1 | ≥ 1 | O=C(O)[C@]1(NS(=O)(=O)c2ccc(-c3csc4ccccc34)s2)C[C@@H]1c1ccccc1 [Example 2-118] |
|  |  | ≥ 10 | < 0.1 | O=C(O)C1(NS(=O)(=O)c2ccc3c(c2)Cc2cc(F)ccc2-3)CC1c1ccccc1 (stereo not drawn) [Example 1-80] |
|  |  | ≥ 1 | < 1 | CN(C)C(=O)COc1cccc(C2CC2(NS(=O)(=O)c2ccc(-c3ccc(Cl)cc3)cc2)C(=O)O)c1 (stereo not drawn) [Example 1-114] |
|  | ≥ 1 |  |  | C[C@]1(c2ccccc2)C[C@@]1(NS(=O)(=O)c1ccc(-c2cccc(OCCCO)c2)s1)C(=O)O [Example 2-576] |
